Test results as given in PubChem BioAssay AID256 (DTP/NCI, 2004).
“And” between values parts separate entries of the source, which are not always exact repeats. Equal entries are not always repeated. Inconclusive results and toxic doses are left out.

Tested on: CD2F1 mice, L1210 leukemia ip, survival T/C
Test: NCI In Vivo Anticancer Drug Screen. Data for tumor model L1210 Leukemia (intraperitoneal) in CD2F1 (CDF1) mice
Settings: higher = longer survival
Method in brief: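 Activity against a transplanted murine tumor was judged by comparing the compound group with a vehicle group. The outcome in the treated animals was divided by that in the controls.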

[1] = endpoint: mean survival time, dose: 100.0 mg/kg/injection, schedule: Q01DX001 (ip), vehicle: saline with Tween-80
[2] = endpoint: mean survival time, dose: 6.25 mg/kg/injection, schedule: Q01DX009 (ip), vehicle: saline with Tween-80
[3] = endpoint: mean survival time, dose: 12.5 mg/kg/injection, schedule: Q01DX009 (ip), vehicle: saline with Tween-80
[4] = endpoint: mean survival time, dose: 50.0 mg/kg/injection, schedule: Q01DX009 (ip), vehicle: saline with Tween-80
[5] = endpoint: mean survival time, dose: 100.0 mg/kg/injection, schedule: Q01DX009 (ip), vehicle: saline with Tween-80
[6] = endpoint: mean survival time, dose: 25.0 mg/kg/injection, schedule: Q01DX009 (ip), vehicle: saline with Tween-80
[7] = endpoint: mean survival time, dose: 200.0 mg/kg/injection, schedule: Q01DX009 (ip), vehicle: saline

In the case of `NNC(=O)c1cccc[n+]1[O-]`, the T/C (endpoint: mean survival time, dose: 12.5 mg/kg/injection, schedule: Q01DX001 (ip), vehicle: water) is reported as 98 % of control, the T/C (endpoint: mean survival time, dose: 25.0 mg/kg/injection, schedule: Q01DX001 (ip), vehicle: water) is reported as 96 % of control and the T/C (endpoint: mean survival time, dose: 50.0 mg/kg/injection, schedule: Q01DX001 (ip), vehicle: water) is reported as 93 % of control. For the same compound, the T/C (endpoint: mean survival time, dose: 100.0 mg/kg/injection, schedule: Q01DX001 (ip), vehicle: water) was 102 % of control.
With `Nc1cc(=O)[nH]c(=S)[nH]1.[Pt]` the T/C (endpoint: mean survival time, dose: 3.13 mg/kg/injection, schedule: Q04DX003 (ip), vehicle: distilled water + Tween-80) was 105 % of control, the T/C (endpoint: mean survival time, dose: 6.25 mg/kg/injection, schedule: Q04DX003 (ip), vehicle: distilled water + Tween-80) was 100 % of control and the T/C (endpoint: mean survival time, dose: 12.5 mg/kg/injection, schedule: Q04DX003 (ip), vehicle: distilled water + Tween-80) was 101 % of control. The T/C (endpoint: mean survival time, dose: 25.0 mg/kg/injection, schedule: Q04DX003 (ip), vehicle: distilled water + Tween-80) was 103 % of control, the T/C (endpoint: mean survival time, dose: 50.0 mg/kg/injection, schedule: Q04DX003 (ip), vehicle: distilled water + Tween-80) was 101 % of control and the T/C (endpoint: mean survival time, dose: 100.0 mg/kg/injection, schedule: Q04DX003 (ip), vehicle: distilled water + Tween-80) was 99 % of control. The T/C (endpoint: mean survival time, dose: 200.0 mg/kg/injection, schedule: Q04DX003 (ip), vehicle: distilled water + Tween-80) was 94 % of control.
`COc1cc2c(c(OC)c1OC)-c1ccc(SC)c(=O)cc1C(N=C(NC1OCC(OC(C)=O)C(OC(C)=O)C1OC(C)=O)SN(NC(=O)OCc1ccccc1)C(=O)OCc1ccccc1)CC2` (stereo not drawn) was tested, and the T/C [1] was 92 % of control.
For `CCOC(=O)Nc1ccccc1[N+](=O)[O-]`, the T/C (endpoint: mean survival time, dose: 100.0 mg/kg/injection, schedule: Q04DX003 (ip), vehicle: other) was 98 % of control, the T/C (endpoint: mean survival time, dose: 200.0 mg/kg/injection, schedule: Q04DX003 (ip), vehicle: other) was 102 % of control and the T/C (endpoint: mean survival time, dose: 400.0 mg/kg/injection, schedule: Q04DX003 (ip), vehicle: other) was 98 % of control.
With `O=C(Cl)c1ccccc1/C=C/c1ccc([N+](=O)[O-])cc1` the T/C [1] was 105 % of control, the T/C (endpoint: mean survival time, dose: 200.0 mg/kg/injection, schedule: Q01DX001 (ip), vehicle: saline with Tween-80) was 103 % of control and the T/C (endpoint: mean survival time, dose: 400.0 mg/kg/injection, schedule: Q01DX001 (ip), vehicle: saline with Tween-80) was 96 % of control.
With `ClC1CCC[N-]C1.ClC1CCC[N-]C1.[Cl][Pt+2]([Cl])([Cl])[Cl]` (stereo not drawn) the T/C (endpoint: mean survival time, dose: 0.78 mg/kg/injection, schedule: Q01DX009 (ip), vehicle: saline with Tween-80) was 102 % of control, the T/C (endpoint: mean survival time, dose: 1.56 mg/kg/injection, schedule: Q01DX009 (ip), vehicle: saline with Tween-80) was 109 % of control and the T/C (endpoint: mean survival time, dose: 3.13 mg/kg/injection, schedule: Q01DX009 (ip), vehicle: saline with Tween-80) was 105 % of control. For the same compound, the T/C [2] was 112 % of control and the T/C [3] was 104 % of control.
In the case of `COc1ccc(C2(C(=O)O)CC(C)=C(C)CC2C(=O)O)cc1` (stereo not drawn), the T/C [4] is reported as 88 % of control, the T/C [5] is reported as 93 % of control and the T/C (endpoint: mean survival time, dose: 100.0 mg/kg/injection, schedule: Q04DX003 (ip), vehicle: saline with Tween-80) is reported as 97 % of control. For the same compound, the T/C (endpoint: mean survival time, dose: 200.0 mg/kg/injection, schedule: Q04DX003 (ip), vehicle: saline with Tween-80) was 95 % of control.
With `COc1cc2c[n+](C)c3c4cc5c(cc4ccc3c2cc1OC)OCO5` the T/C (endpoint: mean survival time, dose: 1.0 mg/kg/injection, schedule: Q01DX009 (ip), vehicle: other) was 104 % of control, the T/C (endpoint: mean survival time, dose: 1.0 mg/kg/injection, schedule: Q01DX009 (ip), vehicle: water) was 102 % of control and 104 % of control and the T/C (endpoint: mean survival time, dose: 2.0 mg/kg/injection, schedule: Q01DX009 (ip), vehicle: other) was 109 % of control. The T/C (endpoint: mean survival time, dose: 2.0 mg/kg/injection, schedule: Q01DX009 (ip), vehicle: water) was 117 % of control and 112 % of control, the T/C (endpoint: mean survival time, dose: 4.0 mg/kg/injection, schedule: Q01DX009 (ip), vehicle: other) was 104 % of control and the T/C (endpoint: mean survival time, dose: 4.0 mg/kg/injection, schedule: Q01DX009 (ip), vehicle: water) was 116 % of control and 120 % of control. The T/C [2] was 120 % of control, the T/C (endpoint: mean survival time, dose: 8.0 mg/kg/injection, schedule: Q01DX009 (ip), vehicle: other) was 115 % of control and the T/C (endpoint: mean survival time, dose: 8.0 mg/kg/injection, schedule: Q01DX009 (ip), vehicle: water) was 115 % of control and 121 % of control. For the same compound, the T/C (endpoint: mean survival time, dose: 8.0 mg/kg/injection, schedule: Q04DX003 (ip), vehicle: water) was 108 % of control, the T/C [3] was 114 % of control and the T/C (endpoint: mean survival time, dose: 16.0 mg/kg/injection, schedule: Q01DX009 (ip), vehicle: other) was 116 % of control. For the same compound, the T/C (endpoint: mean survival time, dose: 16.0 mg/kg/injection, schedule: Q01DX009 (ip), vehicle: water) was 118 % of control and 120 % of control, the T/C (endpoint: mean survival time, dose: 16.0 mg/kg/injection, schedule: Q04DX003 (ip), vehicle: water) was 117 % of control and the T/C [6] was 104 % of control. The T/C (endpoint: mean survival time, dose: 32.0 mg/kg/injection, schedule: Q04DX003 (ip), vehicle: water) was 120 % of control, the T/C (endpoint: mean survival time, dose: 40.0 mg/kg/injection, schedule: Q01DX009 (ip), vehicle: water) was 115 % of control and 116 % of control and the T/C [4] was 98 % of control. The T/C (endpoint: mean survival time, dose: 64.0 mg/kg/injection, schedule: Q04DX003 (ip), vehicle: water) was 121 % of control, the T/C (endpoint: mean survival time, dose: 80.0 mg/kg/injection, schedule: Q01DX009 (ip), vehicle: water) was 103 % of control and the T/C (endpoint: mean survival time, dose: 128.0 mg/kg/injection, schedule: Q04DX003 (ip), vehicle: water) was 101 % of control.
`Nc1nc(N)c2nc(CCOc3ccc(C(=O)NC(CCC(=O)O)C(=O)O)cc3)cnc2n1` (stereo not drawn) was tested, and the T/C (endpoint: mean survival time, dose: 0.38 mg/kg/injection, schedule: Q01DX009 (ip), vehicle: sodium bicarbonate) was 87 % of control, the T/C (endpoint: mean survival time, dose: 0.75 mg/kg/injection, schedule: Q01DX009 (ip), vehicle: sodium bicarbonate) was 90 % of control and the T/C (endpoint: mean survival time, dose: 1.5 mg/kg/injection, schedule: Q01DX009 (ip), vehicle: sodium bicarbonate) was 87 % of control. For the same compound, the T/C (endpoint: mean survival time, dose: 3.0 mg/kg/injection, schedule: Q01DX009 (ip), vehicle: sodium bicarbonate) was 87 % of control, the T/C (endpoint: mean survival time, dose: 6.0 mg/kg/injection, schedule: Q01DX009 (ip), vehicle: sodium bicarbonate) was 98 % of control and the T/C (endpoint: mean survival time, dose: 12.0 mg/kg/injection, schedule: Q01DX009 (ip), vehicle: distilled water + Tween-80) was 104 % of control. The T/C (endpoint: mean survival time, dose: 24.0 mg/kg/injection, schedule: Q01DX009 (ip), vehicle: distilled water + Tween-80) was 102 % of control and the T/C (endpoint: mean survival time, dose: 48.0 mg/kg/injection, schedule: Q01DX009 (ip), vehicle: distilled water + Tween-80) was 104 % of control.
With `O=c1c(O)c(-c2cc(O)c(O)c(O)c2)oc2cc(O)cc(O)c12` the T/C [6] was 98 % of control, the T/C [4] was 91 % of control and the T/C [5] was 93 % of control. For the same compound, the T/C (endpoint: mean survival time, dose: 200.0 mg/kg/injection, schedule: Q01DX009 (ip), vehicle: saline with Tween-80) was 95 % of control.
`COc1ccc(CC(N)C(=O)NC2C(COP(=O)(O)OC3CC(n4cc(C)c(=O)[nH]c4=O)OC3CO)OC(n3cnc4c(N(C)C)ncnc43)C2O)cc1` (stereo not drawn) was tested, and the T/C (endpoint: median survival time, dose: 5.63 mg/kg/injection, schedule: Q01DX005 (ip), vehicle: water) was 96 % of control, the T/C (endpoint: median survival time, dose: 11.25 mg/kg/injection, schedule: Q01DX005 (ip), vehicle: water) was 96 % of control and the T/C (endpoint: median survival time, dose: 21.9 mg/kg/injection, schedule: Q01DX005 (ip), vehicle: saline) was 109 % of control. For the same compound, the T/C (endpoint: median survival time, dose: 22.5 mg/kg/injection, schedule: Q01DX005 (ip), vehicle: water) was 94 % of control, the T/C (endpoint: median survival time, dose: 43.8 mg/kg/injection, schedule: Q01DX005 (ip), vehicle: saline) was 106 % of control and the T/C (endpoint: median survival time, dose: 45.0 mg/kg/injection, schedule: Q01DX005 (ip), vehicle: water) was 100 % of control. For the same compound, the T/C (endpoint: median survival time, dose: 87.5 mg/kg/injection, schedule: Q01DX005 (ip), vehicle: saline) was 108 % of control, the T/C (endpoint: median survival time, dose: 90.0 mg/kg/injection, schedule: Q01DX005 (ip), vehicle: water) was 104 % of control and the T/C (endpoint: median survival time, dose: 175.0 mg/kg/injection, schedule: Q01DX005 (ip), vehicle: saline) was 102 % of control.
For `NC1=NC(=O)N2CC12` (stereo not drawn), the T/C (endpoint: mean survival time, dose: 12.5 mg/kg/injection, schedule: Q01DX009 (ip), vehicle: other) was 100 % of control, the T/C (endpoint: mean survival time, dose: 12.5 mg/kg/injection, schedule: Q01DX009 (ip), vehicle: saline) was 107 % of control and the T/C (endpoint: mean survival time, dose: 25.0 mg/kg/injection, schedule: Q01DX009 (ip), vehicle: other) was 100 % of control. The T/C (endpoint: mean survival time, dose: 25.0 mg/kg/injection, schedule: Q01DX009 (ip), vehicle: saline) was 106 % of control and 110 % of control, the T/C (endpoint: mean survival time, dose: 50.0 mg/kg/injection, schedule: Q01DX009 (ip), vehicle: other) was 105 % of control and the T/C (endpoint: mean survival time, dose: 50.0 mg/kg/injection, schedule: Q01DX009 (ip), vehicle: saline) was 115 % of control and 110 % of control. The T/C [7] was 156 % of control and 173 % of control.
With `NCCCc1ccccc1` the T/C (endpoint: mean survival time, dose: 100.0 mg/kg/injection, schedule: Q01DX009 (ip), vehicle: saline) was 103 % of control and the T/C [7] was 90 % of control.
